Data published in patent publication US4105651A (The United States of America as represented by the …, priority 1976, dated 1978).
Like-named read-outs stand apart in the source and are kept apart here.

Tested on: opiate receptor sites
From the text: The tests which were made in the laboratory were of the myenteric plexus-longitudinal muscle of the guinea pig ileum and the vas deferens of the mouse. In the whole animal the rates of onset and recovery are directly related to lipid solubility which facilitates drug movement to and from the brain.

| SMILES | agonist activity: inhibition of electrically evoked contractions (guinea pig ileum) | agonist activity: inhibition of electrically evoked contractions (mouse vas deferens) |
| --- | --- | --- |
| CC(C)C[C@H](NC(=O)[C@H](Cc1ccccc1)NC(=O)CNC(=O)CNC(=O)[C@@H](N)Cc1ccc(O)cc1)C(=O)O [leucine-enkephalin, H-Tyr-Gly-Gly-Phe-Leu-OH] | dose-related inhibition | dose-related inhibition |
| CSCC[C@H](NC(=O)[C@H](Cc1ccccc1)NC(=O)CNC(=O)CNC(=O)[C@@H](N)Cc1ccc(O)cc1)C(=O)O [methionine-enkephalin, H-Tyr-Gly-Gly-Phe-Met-OH] | dose-related inhibition | dose-related inhibition |
